Test results taken from patent publication US10807992B2, “Single enantiomer antiparasitic compounds” (priority 2017, dated 2020).

Tested on: Ctenocephalides felis
Experiment: In vitro contact activity against fleas (coated substrate)
Conditions: for mortality at 0.006 ppm: Trial 3, dose 0.006 ppm; for mortality at 0.024 ppm: Trial 3, dose 0.024 ppm; for mortality at 0.098 ppm: Trial 3, dose 0.098 ppm; for mortality at 0.39 ppm: Trial 3, dose 0.39 ppm; for mortality at 1.56 ppm: Trial 3, dose 1.56 ppm; for mortality at 6.25 ppm: Trial 3, dose 6.25 ppm; for mortality at 25 ppm: Trial 3, dose 25 ppm; for mortality at 100 ppm: Trial 3, dose 100 ppm
Experimental: Ctenocephalides felis (Avista Pharma, Inc., RTP, NC), 1-7days post hatch, held in an environmental chamber at 24° C., 85% humidity.
For flea contact tests, vial caps were pre-drilled with a single hole in the center of each cap to allow air exchange. A filter paper (Whatman Grade 540 2.1 cm) was placed in the lid of each vial. Pipe cleaners cut to 0.5 inches were inserted in each test vial. An aliquot was taken from each compound stock and added to an acetone/triton solution to achieve the desired top concentrations for the study. Serial dilutions were conducted from the top dose (i.e. 100 ppm) to achieve the desired concentration for EC50 and EC90 determination. The final DMSO concentration was 0.5%. A 75 μL aliquot of each compound formulation was added to each 0.5 inch pipe cleaner contained in the treatment vial. The vials were loosely capped and allowed to dry for a minimum of four hours in a chemical fume hood.
Compounds tested were C1 racemate, the C1 (R) enantiomer, and the C1 (S) enantiomer. For Trial 3, the C1 (R) enantiomer and the C1 (S) enantiomer were further chiral purified to achieve >99% purity.
For both contact and ingestion assays, ten newly emerged unfed adult fleas, 0-7 days old Ctenocephalides felis, from a laboratory colony, were aspirated into each vial or cage. The test vials for contact assays were held in an environmental chamber at 24° C., 80% humidity with light/dark cycles (12 hours each). The cages for flea ingestion assays were held in a temperature-controlled artificial feeding apparatus to allow continual access to organic bovine blood containing the desired concentration of compound. Fresh aliquots of compound-spiked bovine blood were provided daily for the duration of the study.
Fleas were evaluated for percent mortality at various time points between 2 hours and 48 hours post infestation. Fleas showing normal movement and/or jumping ability were considered viable and those showing no movement after tapping the vials were scored as dead.

O=C(CC(F)(F)F)N1CC2(C1)OCc1cc(C3=NSC(c4cc(Cl)c(F)c(Cl)c4)(C(F)(F)F)C3)ccc12 (racemic) [C1 racemate, 1-[6-[5-(3,5-dichloro-4-fluoro-phenyl)-5-(trifluoromethyl)-4H-isothiazol-3-yl]spiro[1H-isobenzofuran-3,3′-azetidine]-1′-yl]-3,3,3-trifluoro-propan-1-one]
70%: mortality at 100 ppm (24 h, Rep1) | mortality at 25 ppm (48 h, Rep2)
80%: mortality at 25 ppm (48 h, Rep1)
100%: mortality at 100 ppm (48 h, Rep1) | mortality at 100 ppm (48 h, Rep2)
40%: mortality at 100 ppm (24 h, Rep2)
0%: mortality at 0.006 ppm (6 h, Rep1) | mortality at 0.006 ppm (6 h, Rep2) | mortality at 0.024 ppm (6 h, Rep1) | mortality at 0.024 ppm (6 h, Rep2) | mortality at 0.098 ppm (6 h, Rep1) | mortality at 0.098 ppm (6 h, Rep2) | mortality at 0.39 ppm (6 h, Rep1) | mortality at 0.39 ppm (6 h, Rep2) | mortality at 1.56 ppm (6 h, Rep1) | mortality at 1.56 ppm (6 h, Rep2) | mortality at 6.25 ppm (6 h, Rep1) | mortality at 6.25 ppm (6 h, Rep2) | mortality at 25 ppm (6 h, Rep1) | mortality at 25 ppm (6 h, Rep2) | mortality at 100 ppm (6 h, Rep1) | mortality at 100 ppm (6 h, Rep2) | mortality at 0.006 ppm (24 h, Rep1) | mortality at 0.006 ppm (24 h, Rep2) | mortality at 0.024 ppm (24 h, Rep1) | mortality at 0.024 ppm (24 h, Rep2) | mortality at 0.098 ppm (24 h, Rep1) | mortality at 0.098 ppm (24 h, Rep2) | mortality at 0.39 ppm (24 h, Rep1) | mortality at 0.39 ppm (24 h, Rep2) | mortality at 1.56 ppm (24 h, Rep1) | mortality at 1.56 ppm (24 h, Rep2) | mortality at 6.25 ppm (24 h, Rep1) | mortality at 6.25 ppm (24 h, Rep2) | mortality at 25 ppm (24 h, Rep1) | mortality at 25 ppm (24 h, Rep2) | mortality at 0.006 ppm (48 h, Rep1) | mortality at 0.006 ppm (48 h, Rep2) | mortality at 0.024 ppm (48 h, Rep1) | mortality at 0.024 ppm (48 h, Rep2) | mortality at 0.098 ppm (48 h, Rep1) | mortality at 0.098 ppm (48 h, Rep2) | mortality at 0.39 ppm (48 h, Rep1) | mortality at 0.39 ppm (48 h, Rep2) | mortality at 1.56 ppm (48 h, Rep1) | mortality at 1.56 ppm (48 h, Rep2) | mortality at 6.25 ppm (48 h, Rep1) | mortality at 6.25 ppm (48 h, Rep2)

O=C(CC(F)(F)F)N1CC2(C1)OCc1cc(C3=NS[C@](c4cc(Cl)c(F)c(Cl)c4)(C(F)(F)F)C3)ccc12 [C1 (R) enantiomer, (R)-1-[6-[5-(3,5-dichloro-4-fluoro-phenyl)-5-(trifluoromethyl)-4H-isothiazol-3-yl]spiro[1H-isobenzofuran-3,3′-azetidine]-1′-yl]-3,3,3-trifluoro-propan-1-one]
0%: mortality at 0.006 ppm (6 h, Rep1) | mortality at 0.006 ppm (6 h, Rep2) | mortality at 0.024 ppm (6 h, Rep1) | mortality at 0.024 ppm (6 h, Rep2) | mortality at 0.098 ppm (6 h, Rep1) | mortality at 0.098 ppm (6 h, Rep2) | mortality at 0.39 ppm (6 h, Rep1) | mortality at 0.39 ppm (6 h, Rep2) | mortality at 1.56 ppm (6 h, Rep1) | mortality at 1.56 ppm (6 h, Rep2) | mortality at 6.25 ppm (6 h, Rep1) | mortality at 6.25 ppm (6 h, Rep2) | mortality at 25 ppm (6 h, Rep1) | mortality at 25 ppm (6 h, Rep2) | mortality at 100 ppm (6 h, Rep1) | mortality at 100 ppm (6 h, Rep2) | mortality at 0.006 ppm (24 h, Rep1) | mortality at 0.006 ppm (24 h, Rep2) | mortality at 0.024 ppm (24 h, Rep1) | mortality at 0.024 ppm (24 h, Rep2) | mortality at 0.098 ppm (24 h, Rep1) | mortality at 0.098 ppm (24 h, Rep2) | mortality at 0.39 ppm (24 h, Rep1) | mortality at 0.39 ppm (24 h, Rep2) | mortality at 1.56 ppm (24 h, Rep1) | mortality at 1.56 ppm (24 h, Rep2) | mortality at 6.25 ppm (24 h, Rep1) | mortality at 6.25 ppm (24 h, Rep2) | mortality at 25 ppm (24 h, Rep1) | mortality at 25 ppm (24 h, Rep2) | mortality at 100 ppm (24 h, Rep1) | mortality at 100 ppm (24 h, Rep2) | mortality at 0.006 ppm (48 h, Rep1) | mortality at 0.006 ppm (48 h, Rep2) | mortality at 0.024 ppm (48 h, Rep1) | mortality at 0.024 ppm (48 h, Rep2) | mortality at 0.098 ppm (48 h, Rep1) | mortality at 0.098 ppm (48 h, Rep2) | mortality at 0.39 ppm (48 h, Rep1) | mortality at 0.39 ppm (48 h, Rep2) | mortality at 1.56 ppm (48 h, Rep1) | mortality at 1.56 ppm (48 h, Rep2) | mortality at 6.25 ppm (48 h, Rep1) | mortality at 6.25 ppm (48 h, Rep2) | mortality at 25 ppm (48 h, Rep1) | mortality at 25 ppm (48 h, Rep2) | mortality at 100 ppm (48 h, Rep1) | mortality at 100 ppm (48 h, Rep2)

O=C(CC(F)(F)F)N1CC2(C1)OCc1cc(C3=NS[C@@](c4cc(Cl)c(F)c(Cl)c4)(C(F)(F)F)C3)ccc12 [C1 (S) enantiomer, (S)-1-[6-[5-(3,5-dichloro-4-fluoro-phenyl)-5-(trifluoromethyl)-4H-isothiazol-3-yl]spiro[1H-isobenzofuran-3,3′-azetidine]-1′-yl]-3,3,3-trifluoro-propan-1-one]
100%: mortality at 100 ppm (24 h, Rep1) | mortality at 100 ppm (24 h, Rep2) | mortality at 25 ppm (48 h, Rep1) | mortality at 25 ppm (48 h, Rep2) | mortality at 100 ppm (48 h, Rep1) | mortality at 100 ppm (48 h, Rep2)
20%: mortality at 25 ppm (24 h, Rep2)
30%: mortality at 25 ppm (24 h, Rep1) | mortality at 1.56 ppm (48 h, Rep2) | mortality at 6.25 ppm (48 h, Rep2)
70%: mortality at 6.25 ppm (48 h, Rep1)
10%: mortality at 6.25 ppm (24 h, Rep1) | mortality at 6.25 ppm (24 h, Rep2) | mortality at 0.098 ppm (48 h, Rep1) | mortality at 0.098 ppm (48 h, Rep2) | mortality at 0.39 ppm (48 h, Rep1) | mortality at 1.56 ppm (48 h, Rep1)
0%: mortality at 0.006 ppm (6 h, Rep1) | mortality at 0.006 ppm (6 h, Rep2) | mortality at 0.024 ppm (6 h, Rep1) | mortality at 0.024 ppm (6 h, Rep2) | mortality at 0.098 ppm (6 h, Rep1) | mortality at 0.098 ppm (6 h, Rep2) | mortality at 0.39 ppm (6 h, Rep1) | mortality at 0.39 ppm (6 h, Rep2) | mortality at 1.56 ppm (6 h, Rep1) | mortality at 1.56 ppm (6 h, Rep2) | mortality at 6.25 ppm (6 h, Rep1) | mortality at 6.25 ppm (6 h, Rep2) | mortality at 25 ppm (6 h, Rep1) | mortality at 25 ppm (6 h, Rep2) | mortality at 100 ppm (6 h, Rep1) | mortality at 100 ppm (6 h, Rep2) | mortality at 0.006 ppm (24 h, Rep1) | mortality at 0.006 ppm (24 h, Rep2) | mortality at 0.024 ppm (24 h, Rep1) | mortality at 0.024 ppm (24 h, Rep2) | mortality at 0.098 ppm (24 h, Rep1) | mortality at 0.098 ppm (24 h, Rep2) | mortality at 0.39 ppm (24 h, Rep1) | mortality at 0.39 ppm (24 h, Rep2) | mortality at 1.56 ppm (24 h, Rep1) | mortality at 1.56 ppm (24 h, Rep2) | mortality at 0.006 ppm (48 h, Rep1) | mortality at 0.006 ppm (48 h, Rep2) | mortality at 0.024 ppm (48 h, Rep1) | mortality at 0.024 ppm (48 h, Rep2) | mortality at 0.39 ppm (48 h, Rep2)
